≈ marks a conversion by molar mass, not a printed value. Entries after “also recorded” stand apart in the source; their conditions may differ. Where two headings read alike, the source gives them in different places. Where a SMILES comes first, the peptide text is derived from it.

The source of these data is patent publication US20260274904A1, “ANTIMICROBIAL NCR2 PEPTIDES” (Donald Danforth Plant Science Center, priority 2019, published 2026).

The test system of one test is P. capsici. As to the kind of experiment: Resazurin cell viability assay. It counts as cell-based, Phytophthora capsici. Background: Alamar Blue is a resazurin reagent that responds to reducing activity.
The subject of test [1] is Botrytis cinerea. As to the kind of experiment: Detached lettuce leaf infection assay (in planta antifungal activity). The class given is in vivo. The conditions noted are these: detached iceberg lettuce leaves, peptide 3, 6, and 12 μM drop inoculated, 48 hours.
The subject of test [2] is Botrytis cinerea. The conditions noted are these: for antifungal activity compared with the antifungal activity of NCR2 monomer: against B. cinerea.
Test [3] relates to Phytophthora capsici LT263.
Test [4] is described as follows: Protein-phospholipid overlay assay (PIP Strips), overall. The following applies: protein-lipid overlay, 1 μg/ml peptide, 100 pmol lipid per spot.
Protocol: (§1) Briefly, lipid strips were blocked with 10 mL of blocking buffer, PBS-T/3% fat free BSA for 12-16 h at 4° C. with gentle agitation. […] After hybridization, protein solution was discarded and the strips were then washed with PBS-T three times with gentle agitation for 20 minutes each for 1 hour at room temperature. […] The lipid strips were washed with PBS-T two times with gentle agitation, for 15 minutes each wash, at room temperature. HRP-conjugated Mouse Anti-Rabbit IgG secondary antibody (GenScript Cat no A01827) diluted 1:4000 in blocking buffer was added to the lipid strips and incubated for 60 minutes at 4° C. After two washes with PBS-T, chemiluminescence was detected using SuperSignal® West Pico PLUS Sensitivity substrate kit (Thermo Scientific, Cat no: 34080 following the manufacturer's protocol.
Test [5] deals with Fusarium graminearum PH-1. It counts as cell-based. The conditions noted are these: F. graminearum, absorbance at 595 nm at 48 hours.
The subject of another test is Fusarium species. It counts as cell-based, Fusarium sp. The conditions noted are these: against F. oxysporum, F. graminearum and F. virguliforme.
Test [6] in a line: Protein-phospholipid overlay assay (PIP Strips). The following applies: protein-lipid overlay, 1 μg/ml peptide, 100 pmol lipid per spot.
Protocol: as §1
A short description of test [7]: Protein-phospholipid overlay assay (PIP Strips). The conditions noted are these: protein-lipid overlay, 1 μg/ml peptide, 100 pmol lipid per spot. The source holds these as a separate data set.
Protocol: as §1
Test [8] in a line: Protein-phospholipid overlay assay (PIP Strips). The conditions noted are these: protein-lipid overlay, 1 μg/ml peptide, 100 pmol lipid per spot. The source holds these as a separate data set.
Protocol: as §1
Test [9] can be described thus: Protein-phospholipid overlay assay (PIP Strips). The conditions noted are these: protein-lipid overlay, 1 μg/ml peptide, 100 pmol lipid per spot. This is another data set of the same source.
Protocol: as §1
Test [10] can be described thus: Protein-phospholipid overlay assay (PIP Strips). The following applies: protein-lipid overlay, 1 μg/ml peptide, 100 pmol lipid per spot. The source holds these as a separate data set.
Protocol: as §1
Test [11] in a line: Protein-phospholipid overlay assay (PIP Strips). The conditions noted are these: protein-lipid overlay, 1 μg/ml peptide, 100 pmol lipid per spot. This is another data set of the same source.
Protocol: as §1
Test [12] is described as follows: Protein-phospholipid overlay assay (PIP Strips). The conditions noted are these: protein-lipid overlay, 1 μg/ml peptide, 100 pmol lipid per spot. This is another data set of the same source.
Protocol: as §1
The nature of test [13]: Protein-phospholipid overlay assay (PIP Strips). The conditions noted are these: protein-lipid overlay, 1 μg/ml peptide, 100 pmol lipid per spot. The source holds these as a separate data set.
Protocol: as §1
The mark [14] stands for this setting: B. cinerea, absorbance at 595 nm at 48 hours.
Where [15] appears, read: P. capsici zoospores, absorbance at 595 nm at 48 hours.

Regarding `CC[C@H](C)[C@H](NC(=O)[C@H](CCCNC(=N)N)NC(=O)[C@H](CCCNC(=N)N)NC(=O)[C@H](CCCNC(=N)N)NC(=O)[C@@H](NC(=O)[C@H](CS)NC(=O)[C@H](Cc1ccc(O)cc1)NC(=O)CNC(=O)[C@H](CCCCN)NC(=O)[C@H](CCCNC(=N)N)NC(=O)[C@H](CS)NC(=O)[C@H](CCCNC(=N)N)NC(=O)[C@H](C)NC(=O)[C@H](CCCNC(=N)N)NC(=O)[C@H](Cc1ccc(O)cc1)NC(=O)[C@H](CC(N)=O)NC(=O)[C@H](CCCCN)NC(=O)[C@@H](NC(=O)[C@@H](NC(=O)[C@H](CO)NC(=O)[C@H](CS)NC(=O)[C@H](CCC(=O)O)NC(=O)[C@H](CCCCN)NC(=O)[C@H](CC(=O)O)NC(=O)[C@H](CO)NC(=O)[C@@H](NC(=O)[C@H](CS)NC(=O)[C@@H]1CCCN1C(=O)[C@H](CCCCN)NC(=O)[C@H](CO)NC(=O)[C@H](CC(C)C)NC(=O)[C@H](CCC(N)=O)NC(=O)[C@@H](NC(=O)[C@H](CS)NC(=O)[C@H](Cc1ccccc1)NC(=O)[C@H](C)N)[C@@H](C)CC)[C@@H](C)CC)[C@@H](C)CC)C(C)C)C(C)C)C(=O)N[C@@H](CCCNC(=N)N)C(=O)N[C@@H](CS)C(=O)O` [NCR2_V2] (H-AFCIQLSKPCISDKECSIVKNYRARCRKGYCVRRRIRC-OH; N-terminus and C-terminus assumed), in the test with P. capsici, the “concentration of cell death (resazurin assay)” value (from here on “concentration of cell death”) is 6 µM. The “size of disease lesions caused by Botrytis cinerea” value in the test with Botrytis cinerea [1] is “much smaller lesions; also recorded: effective in reducing the sizes of disease lesions”. Further, the concentration for half-maximal inhibition (IC50) in the test on Botrytis cinerea [2] (48 h) worked out at 2000 nM; in [3] (48 h), 3000 nM. Moreover, the minimum inhibitory concentration (MIC) is 3 µM (≈ 13.6 µg/mL) against Botrytis cinerea [2] (48 h) and 6 µM (≈ 27.1 µg/mL) in [3] (48 h). In addition, the “binding to phospholipids (overall)” value was “not found to bind to any phospholipids; also recorded: does not bind to any Phospholipids” in test [4] and “does not bind to any phospholipids” in test [4] (listed as NCR2 V2).
In the case of “AFIQLSKPCISDKECSIVKNYRARCRKGYCVRRRIRGGKAGKKAPKAFIQLSKPCISDKECSIVKNYRARCRKGYCVRRRIR [NCR2-L2-NCR2]”, the concentration for half-maximal inhibition (IC50) in [5] amounted to 1000 nM; in the test with Botrytis cinerea [2] (setting [14]), 750 nM; with F. oxysporum, 300 nM. Besides, the MIC in test [5] amounted to 1.5 µM; against Botrytis cinerea [2] (setting [14]) it was 1.5 µM; against F. virguliforme it was 1.5 µM; against F. oxysporum it was 0.75 µM. Also, the “increase in the antifungal activity of dimer compared with the monomer” value in the test with Fusarium species is recorded as “Two-fold increase”. In addition, the “antifungal activity compared with the antifungal activity of NCR2 monomer” value in the test with Botrytis cinerea [2] is “significant increase”.
`CC[C@H](C)[C@H](NC(=O)[C@H](CCCNC(=N)N)NC(=O)[C@H](CCCNC(=N)N)NC(=O)[C@H](CCCNC(=N)N)NC(=O)[C@@H](NC(=O)[C@H](CS)NC(=O)[C@H](Cc1ccc(O)cc1)NC(=O)CNC(=O)[C@H](CCCCN)NC(=O)[C@H](CCCNC(=N)N)NC(=O)[C@H](CS)NC(=O)[C@H](CCCNC(=N)N)NC(=O)[C@H](C)NC(=O)[C@H](CCCNC(=N)N)NC(=O)[C@H](Cc1ccc(O)cc1)NC(=O)[C@H](CC(N)=O)NC(=O)[C@H](CCCCN)NC(=O)[C@@H](NC(=O)[C@@H](NC(=O)[C@H](CO)NC(=O)[C@H](CS)NC(=O)[C@@H]1CCCN1C(=O)CNC(=O)[C@H](CCCCN)NC(=O)[C@H](Cc1ccccc1)NC(=O)[C@H](CCCCN)NC(=O)[C@H](Cc1c[nH]cn1)NC(=O)[C@H](CS)NC(=O)[C@@H]1CCCN1C(=O)[C@H](CCCCN)NC(=O)[C@H](CO)NC(=O)[C@H](CC(C)C)NC(=O)[C@H](CCC(N)=O)NC(=O)[C@@H](NC(=O)[C@H](Cc1ccccc1)NC(=O)[C@H](C)N)[C@@H](C)CC)[C@@H](C)CC)C(C)C)C(C)C)C(=O)N[C@@H](CCCNC(=N)N)C(=O)O` [NCR2_V1] (H-AFIQLSKPCHKFKGPCSIVKNYRARCRKGYCVRRRIR-OH): the “concentration of cell death” value in the test on P. capsici is 3 µM. Also, the “size of disease lesions caused by Botrytis cinerea” value with Botrytis cinerea [1] was “much smaller lesions; also recorded: effective in reducing the size of disease lesions”; with Botrytis cinerea [1] (listed as NCR2 V1), “effective in reducing the sizes of disease lesions”. In addition, the IC50 in the test with Botrytis cinerea [2] (48 h) is 1500 nM; in test [3] (48 h), 2000 nM. Also, the MIC against Botrytis cinerea [2] (48 h) is 2 to 3 µM; in test [3] (48 h), 3 µM (≈ 13.3 µg/mL). Moreover, in test [6], the “binding to PI(3)P” value was “bound tightly; also recorded: greater affinity than the wild-type NCR2 peptide”. Besides, the “binding to PI(4)P” value in test [7] is listed as “bound tightly; also recorded: greater affinity than the wild-type NCR2 peptide”. Also, the “binding to PI(5)P” value in [8] is “bound tightly; also recorded: greater affinity than the wild-type NCR2 peptide”. Besides, the “binding to PI(3,4)P2” value in [9] is reported as “weakly”. Further, the “binding to PI(3,5)P2” value in test [10] is given as “weakly”. In [11], the “binding to PI(4,5)P2” value is on record as “weakly”. Also, in [12], the “binding to PI(3,4,5)P3” value is recorded as “No binding”. In test [13], the “binding to phosphatidic acid (PA)” value is “weakly”. In test [4], the “binding to phospholipids (overall)” value was “bind to multiple phospholipids”.

B1: AFIQLSKPCISDKECSIVKNYRARCRKGYCVRRRIRAPKKVEPAFIQLSKPCISDKECSIVKNYRARCRKGYCVRRRIR (protein)
chain: AFIQLSKPCISDKECSIVKNYRARCRKGYCVRRRIRAPKKVEPAFIQLSKPCISDKECSIVKNYRARCRKGYCVRRRIR
notes: two copies of NCR2 linked in tandem by linker peptide APKKVEP (L1)
For the molecule B1, the IC50 stood at 1000 nM in test [5], 750 nM in the test with Botrytis cinerea [2] (setting [14]), 300 nM in the test on F. oxysporum and 2000 nM in test [3] (setting [15]). Moreover, the minimum inhibitory concentration (MIC) in test [5] is 1.5 µM; in the test with Botrytis cinerea [2] (setting [14]) it was 1.5 µM; against F. virguliforme, 1.5 µM; in the test on F. oxysporum, 0.75 µM; in test [3] (setting [15]), 3 µM. In addition, the “increase in the antifungal activity of dimer compared with the monomer” value in the test on Fusarium species is recorded as “Two-fold increase”. In addition, the “concentration of cell death” value with P. capsici worked out at 3 µM. Further, in the test with Botrytis cinerea [2], the “antifungal activity compared with the antifungal activity of NCR2 monomer” value is recorded as “significant increase”.

Usually IC50 stands for the concentration at which inhibition is half-maximal. The MIC is the least concentration at which growth counts as inhibited. Read a high MIC as a need for much substance.
